Here are results for 1 compound from ChEMBL document CHEMBL5523723, “G Protein-Coupled Estrogen Receptor-Mediated Anti-Inflammatory and Mucosal Healing Activity of a Trimethylpyridinol Analogue in Inflammatory Bowel Disease” (J Med Chem, 2024).

For one data set, the target named is CYP2D6 (Homo sapiens, UniProt P10635). The data set is described as follows: Inhibition of CYP2D6 in human liver microsomes assessed as remaining activity at 10 uM using dextromethorphan as substrate preincubated for 5 mins followed by NADPH generating system addition for 15 mins by LC-MS/MS method relative to control. The settings on record: probe dextromethorphan, time 20 min, read-out: Activity. Format: ADME, Microsome.
Chain of CYP2D6 (P10635 whole entry): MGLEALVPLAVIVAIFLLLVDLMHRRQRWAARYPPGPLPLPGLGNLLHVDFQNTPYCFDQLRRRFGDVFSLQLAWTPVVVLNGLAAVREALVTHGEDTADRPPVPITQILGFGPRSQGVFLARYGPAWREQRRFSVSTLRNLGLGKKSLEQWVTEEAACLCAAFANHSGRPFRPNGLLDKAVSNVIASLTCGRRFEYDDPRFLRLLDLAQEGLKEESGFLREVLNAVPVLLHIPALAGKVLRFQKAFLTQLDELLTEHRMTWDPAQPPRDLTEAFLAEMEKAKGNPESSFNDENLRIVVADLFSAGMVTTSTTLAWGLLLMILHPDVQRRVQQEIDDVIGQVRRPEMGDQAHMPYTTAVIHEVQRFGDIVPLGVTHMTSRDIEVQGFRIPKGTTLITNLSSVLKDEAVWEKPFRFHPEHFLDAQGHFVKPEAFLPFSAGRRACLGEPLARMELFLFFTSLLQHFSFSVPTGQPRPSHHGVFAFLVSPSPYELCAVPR

The nature of data set [1]: AUC(0 to t) in Sprague-Dawley rat at 5 mg/kg, po by LC-MS analysis. Format: ADME, organism-based. The settings on record: in vivo.
For a further data set, the system named is HT-29. The data set is described as follows: Induction of apoptosis in human HT-29 cells assessed as viable cells at 5 uM incubated for 24 hrs by Annexin V FITC/PI staining based flow cytometry analysis ( Rvb = 99 +/- 0.1%). Format: functional. The settings on record: read-out: Activity. In general terms: Flow cytometry measures light scatter and fluorescence of single cells or particles in a stream.

A short description of data set [2]: Half-life in Sprague-Dawley rat at 1 mg/kg, iv by LC-MS analysis. Format: ADME, organism-based. As to conditions: in vivo.
Data set [3] in a line: Mean residence time in Sprague-Dawley rat at 1 mg/kg, iv by LC-MS analysis. The settings on record: in vivo. Format: ADME, organism-based.
Data set [4] deals with G-protein coupled estrogen receptor 1 (Homo sapiens, UniProt Q99527). The data set is described as follows: Binding affinity to human GPER by SPR method. (In general: In SPR one partner is held on a chip, and binding of the other changes the refractive index at the surface.)
Chain of G-protein coupled estrogen receptor 1 (Q99527 whole entry): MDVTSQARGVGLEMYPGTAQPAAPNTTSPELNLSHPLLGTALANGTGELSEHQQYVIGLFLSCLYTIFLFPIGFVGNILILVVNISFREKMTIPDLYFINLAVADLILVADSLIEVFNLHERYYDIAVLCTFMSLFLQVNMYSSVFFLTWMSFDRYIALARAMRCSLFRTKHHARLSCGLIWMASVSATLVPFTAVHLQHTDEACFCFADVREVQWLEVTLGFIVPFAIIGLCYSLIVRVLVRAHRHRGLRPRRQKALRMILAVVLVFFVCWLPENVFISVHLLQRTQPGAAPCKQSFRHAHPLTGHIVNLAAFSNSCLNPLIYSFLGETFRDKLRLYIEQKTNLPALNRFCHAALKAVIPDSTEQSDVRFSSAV
The nature of data set [5]: Acute toxicity in ICR mouse assessed as change in heart weight at 30 to 300 mg/kg, po measured every other day for 14 days […]. Format: organism-based. The settings on record: in vivo, 336 h, dose 30-300 mg/kg, time 14 day.
In data set [6] the target is T1, Amine oxidase [flavin-containing] B (Homo sapiens, UniProt P27338).
T1 sequence (P27338 whole entry): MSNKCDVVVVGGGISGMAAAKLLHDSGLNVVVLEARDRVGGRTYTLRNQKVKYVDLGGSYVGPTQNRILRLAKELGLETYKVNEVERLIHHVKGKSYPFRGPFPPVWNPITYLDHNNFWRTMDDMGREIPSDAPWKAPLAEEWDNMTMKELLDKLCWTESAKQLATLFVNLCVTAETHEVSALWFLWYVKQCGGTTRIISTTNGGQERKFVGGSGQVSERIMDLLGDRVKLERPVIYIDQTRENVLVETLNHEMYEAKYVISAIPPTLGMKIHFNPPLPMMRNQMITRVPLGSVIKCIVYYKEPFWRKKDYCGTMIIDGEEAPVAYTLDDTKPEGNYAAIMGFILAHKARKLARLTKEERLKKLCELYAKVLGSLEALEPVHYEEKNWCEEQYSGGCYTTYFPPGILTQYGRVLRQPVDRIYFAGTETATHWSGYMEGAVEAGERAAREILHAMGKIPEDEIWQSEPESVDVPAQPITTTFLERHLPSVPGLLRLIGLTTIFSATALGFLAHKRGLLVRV
The data set is described as follows: Inhibition of MAOB (unknown origin).

The nature of data set [7]: Acute toxicity in ICR mouse assessed as change in liver weight at 30 to 300 mg/kg, po measured every other day for 14 days […]. The settings on record: in vivo, 336 h, dose 30-300 mg/kg, time 14 day. Format: organism-based.

For orientation: half-life means how long it takes for the measured level to halve. Lower therefore signals fast loss. A word on the MRT: it is a mean duration of stay, worked out from the concentration-time curve. What is called Kd is the free concentration of one partner at which half of the binding sites on the other are occupied at equilibrium, for simple one-to-one binding. For orientation: IC50 means the concentration that gives 50% inhibition. Higher therefore signals weaker potency. Consider `Cc1nc(NC(=O)c2sc3cc(F)ccc3c2Cl)c(C)c(C)c1O`, for which the activity at 0.25 h, 10 µM at CYP2D6 turned out to be 86%. Further, the AUCt in [1] stood at 1849.2 ng·h/mL. The viability at 5 µM with HT-29 was 98.7%. This compound also had a half-life in data set [2] of 2 h. Besides, in [3], the mean residence time MRT worked out at 1.2 h. The compound further gave a Kd in data set [4] of 23.7 nM. The Activity result in [5] and in data set [7] was “Non-Toxic” throughout. The compound further yielded an IC50 in data set [6] of 54 nM.
